Data published in ChEMBL document CHEMBL4417635, “2-hydroxyarylamide derivative or pharmaceutically acceptable salt thereof, preparation method thereof, and pharmaceutical composition for preventing or treating cancer containing same as active ingredient” (2013).

Experiments:
[1] = target: Transmembrane protease serine 4 (Homo sapiens) (UniProt Q9NRS4); assay: (§1) Inhibition of TMPRSS4 serine protease domain (Val 205 to Leu 437 residues) (unknown origin) expressed in Escherichia coli BL21 (DE3) at 100 uM using […]-Gln-Ala-Arg-7-amido-4-methylcoumarin hydrochloride substrate and measured for 5 mins at 5 mins intervals by fluorescence based assay relative to control
[2] = target: Transmembrane protease serine 4 (Homo sapiens) (UniProt Q9NRS4); assay: as §1, with “30” for “100”
[3] = target: Transmembrane protease serine 4 (Homo sapiens) (UniProt Q9NRS4); assay: Inhibition of TMPRSS4 serine protease domain (Val 205 to Leu 437 residues) (unknown origin) expressed in Escherichia coli BL21 (DE3) using […]-Gln-Ala-Arg-7-amido-4-methylcoumarin hydrochloride substrate and measured for 5 mins at 5 mins intervals by fluorescence based assay relative to control
[4] = target: Transmembrane protease serine 4 (Homo sapiens) (UniProt Q9NRS4); assay: Inhibition of TMPRSS4 (unknown origin) expressed in human SW480 cells assessed as reduction in cell migration at 5 uM incubated for 48 hrs by crystal violet staining based assay relative to control
[5] = target: Transmembrane protease serine 4 (Homo sapiens) (UniProt Q9NRS4); assay: Inhibition of TMPRSS4 (unknown origin) expressed in human SW480 cells assessed as reduction in cell migration at 2 uM incubated for 48 hrs by crystal violet staining based assay relative to control
[6] = target: Transmembrane protease serine 4 (Homo sapiens) (UniProt Q9NRS4); assay: as §1, with “10” for “100”
[7] = target: Transmembrane protease serine 4 (Homo sapiens) (UniProt Q9NRS4); assay: Inhibition of TMPRSS4 (unknown origin) expressed in human SW480 cells assessed as reduction in cell migration at 0.8 uM incubated for 48 hrs by crystal violet staining based assay relative to control
[8] = target: Transmembrane protease serine 4 (Homo sapiens) (UniProt Q9NRS4); assay: Inhibition of TMPRSS4 (unknown origin) expressed in human SW480 cells assessed as reduction in cell migration at 25 uM incubated for 48 hrs by crystal violet staining based assay relative to control

Transmembrane protease serine 4 (Homo sapiens), sequence (Q9NRS4 whole entry, the tested form may be a part): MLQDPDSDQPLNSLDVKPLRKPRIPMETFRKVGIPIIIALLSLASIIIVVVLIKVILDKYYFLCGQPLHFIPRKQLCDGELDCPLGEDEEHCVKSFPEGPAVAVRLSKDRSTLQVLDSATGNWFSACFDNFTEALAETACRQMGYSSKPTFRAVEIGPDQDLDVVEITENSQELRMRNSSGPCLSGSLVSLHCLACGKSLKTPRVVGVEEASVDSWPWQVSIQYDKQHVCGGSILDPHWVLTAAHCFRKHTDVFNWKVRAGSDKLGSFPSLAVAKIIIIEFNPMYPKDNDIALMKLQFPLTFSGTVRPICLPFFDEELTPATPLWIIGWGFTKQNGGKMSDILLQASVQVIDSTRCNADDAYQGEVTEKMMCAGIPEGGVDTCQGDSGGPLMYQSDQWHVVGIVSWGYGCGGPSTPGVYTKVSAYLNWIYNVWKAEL

Compound: O=C(Nc1nnc(C(F)(F)F)s1)c1cc(Cl)ccc1O
- inhibition [1]: 100%
- inhibition [2]: 75%
- inhibition [3]: Dose-dependent effect
- inhibition [4]: 29%

Compound: N#Cc1ccc(NC(=O)c2cc(Cl)ccc2O)c(Cl)c1
- inhibition [1]: 100%
- inhibition [2]: 92%
- inhibition [3]: Dose-dependent effect
- inhibition [5]: 54%

Compound: O=C(Nc1ccc(Cl)c(C(F)(F)F)c1)c1cc(Cl)ccc1O
- inhibition [1]: 99%
- inhibition [2]: 95%
- inhibition [6]: 71%
- inhibition [3]: Dose-dependent effect
- inhibition [7]: 68%

Compound: N#Cc1ccc(NC(=O)c2cc(Cl)ccc2O)cc1C(F)(F)F
- inhibition [1]: 100%
- inhibition [2]: 88%
- inhibition [3]: Dose-dependent effect
- inhibition [5]: 81%

Compound: N#Cc1ccc(NC(=O)c2cc(Cl)ccc2O)nc1
- inhibition [2]: 63%
- inhibition [6]: 26%
- inhibition [3]: Dose-dependent effect
- inhibition [4]: 44%

Compound: O=C(Nc1cc(C(F)(F)F)cc(C(F)(F)F)c1)c1cc(Cl)ccc1O
- inhibition [1]: 100%
- inhibition [2]: 96%
- inhibition [6]: 64%
- inhibition [3]: Dose-dependent effect
- inhibition [7]: 76%

Compound: COc1cc(NC(=O)c2cc(Cl)ccc2O)cc(C(F)(F)F)c1
- inhibition [1]: 99%
- inhibition [2]: 88%
- inhibition [6]: 67%
- inhibition [3]: Dose-dependent effect
- inhibition [7]: 49%

Compound: O=C(Nc1cnc2ccccc2c1)c1cc(Cl)ccc1O
- inhibition [1]: 75%
- inhibition [2]: 8%
- inhibition [3]: Dose-dependent effect
- inhibition [8]: 51%

Compound: O=C(Nc1nc(-c2ccccc2)cs1)c1cc(Cl)ccc1O
- inhibition [1]: 98%
- inhibition [2]: 91%
- inhibition [3]: Dose-dependent effect
- inhibition [5]: 75%
